Test results published in patent US10597388B2, “Pyridazinone herbicides” (FMC CORPORATION, priority 2014, dated 2020).

Experiments:
Type in all cases: in vivo
[1] = test system: ryegrass, Italian (Italian ryegrass, Lolium multiflorum); assay: Test C greenhouse herbicide test, pre- and postemergence
How it was run: (§1)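 Two application timings: at sowing into a soil/sand blend, and on 2–18 cm seedlings in peat-vermiculite potting mix. A non-phytotoxic, surfactant-containing solvent carried the compounds. Plants were compared with controls and rated visually on 0–100 after 13–15 d.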

[2] = test system: foxtail, giant (giant foxtail, Setaria faberii); assay: as above
How it was run: as §1

[3] = test system: pigweed (Amaranthus retroflexus); assay: as above
How it was run: as §1

[4] = test system: morningglory (Ipomoea coccinea); assay: as above
How it was run: as §1

[5] = test system: crabgrass, large (large crabgrass, Digitaria sanguinalis); assay: as above
How it was run: as §1

[6] = test system: johnsongrass (Sorghum halepense); assay: as above
How it was run: as §1

[7] = test system: ragweed (common ragweed, Ambrosia elatior); assay: as above
How it was run: as §1

soybean (Glycine max) = assay: as above
How it was run: as §1

[8] = test system: lambsquarters (Chenopodium album); assay: as above
How it was run: as §1

[9] = test system: blackgrass (Alopecurus myosuroides); assay: as above
How it was run: as §1

corn (Zea mays) = assay: as above
How it was run: as §1

[10] = test system: waterhemp (common waterhemp, Amaranthus rudis); assay: as above
How it was run: as §1

[11] = test system: barnyardgrass (Echinochloa crus-galli); assay: as above
How it was run: as §1

[12] = test system: wheat (winter wheat, Triticum aestivum); assay: as above
How it was run: as §1

[13] = test system: oat, wild (wild oat, Avena fatua); assay: Test C greenhouse herbicide test, postemergence
How it was run: (§2)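 Steps: pot plants in peat-based medium; spray postemergence at 1- to 4-leaf stage; hold in greenhouse 13 to 15 d; score visually against controls from 0 (no effect) to 100 (complete control).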

kochia (Kochia scoparia) = assay: Test C greenhouse herbicide test, postemergence
How it was run: as §2

[14] = Postemergence, 31 g ai/ha, scale 0 to 100 (0 no effect, 100 complete control)
[15] = Postemergence, 62 g ai/ha, 0 to 100 scale (0 no effect, 100 complete control)
[16] = Postemergence, 250 g ai/ha, scale 0 to 100, 0 no effect, 100 complete control, 13 to 15 d
[17] = Preemergence, 31 g ai/ha, scale 0 to 100, 0 is no effect, 100 is complete control
[18] = Preemergence, 62 g ai/ha, scale 0 to 100, 0 is no effect, 100 is complete control
[19] = Preemergence, 125 g ai/ha, scale 0 to 100, 0 is no effect, 100 is complete control
[20] = Preemergence, 250 g ai/ha, scale 0 to 100 (0 no effect, 100 complete control)
[21] = postemergence, 125 g ai/ha, scale 0 to 100, 0 no effect, 100 complete control

CC(=O)Oc1c(Br)nn(C)c(=O)c1-c1c(C)ccc2ccccc12 [Compound 129]
Plant response rating, Ryegrass, Italian [1, 14]: 70 | Ryegrass, Italian plant response rating [1, 15]: 90 | Plant response rating, Ryegrass, Italian [1, 16]: 95 | Plant response rating, Ryegrass, Italian [1, 17]: 90 | Plant response rating, Ryegrass, Italian [1, 18]: 90 | Plant response rating, Ryegrass, Italian [1, 19]: 95 | Ryegrass, Italian plant response rating [1, 20]: 95 | Ryegrass, Italian plant response rating [1, 21]: 95 | Plant response rating, Foxtail, Giant [2, 14]: 60 | Foxtail, Giant plant response rating [2, 15]: 75 | Plant response rating, Foxtail, Giant [2, 16]: 95 | Plant response rating, Foxtail, Giant [2, 17]: 85 | Plant response rating, Foxtail, Giant [2, 18]: 90 | Plant response rating, Foxtail, Giant [2, 19]: 95 | Foxtail, Giant plant response rating [2, 20]: 98 | Foxtail, Giant plant response rating [2, 21]: 85 | Plant response rating, Pigweed [3, 14]: 95 | Pigweed plant response rating [3, 15]: 95 | Plant response rating, Pigweed [3, 16]: 98 | Plant response rating, Pigweed [3, 17]: 100 | Plant response rating, Pigweed [3, 18]: 98 | Plant response rating, Pigweed [3, 19]: 98 | Pigweed plant response rating [3, 20]: 100 | Pigweed plant response rating [3, 21]: 98 | Plant response rating, Morningglory [4, 14]: 98 | Morningglory plant response rating [4, 15]: 100 | Plant response rating, Morningglory [4, 16]: 100 | Plant response rating, Morningglory [4, 17]: 85 | Plant response rating, Morningglory [4, 18]: 90 | Plant response rating, Morningglory [4, 19]: 90 | Morningglory plant response rating [4, 20]: 98 | Morningglory plant response rating [4, 21]: 100 | Plant response rating, Crabgrass, Large [5, 14]: 20 | Crabgrass, Large plant response rating [5, 15]: 30 | Plant response rating, Crabgrass, Large [5, 16]: 60 | Plant response rating, Crabgrass, Large [5, 17]: 5 | Plant response rating, Crabgrass, Large [5, 18]: 25 | Plant response rating, Crabgrass, Large [5, 19]: 75 | Crabgrass, Large plant response rating [5, 20]: 85 | Crabgrass, Large plant response rating [5, 21]: 35 | Plant response rating, Johnsongrass [6, 14]: 10 | Johnsongrass plant response rating [6, 15]: 15 | Plant response rating, Johnsongrass [6, 16]: 25 | Plant response rating, Johnsongrass [6, 17]: 5 | Plant response rating, Johnsongrass [6, 18]: 5 | Plant response rating, Johnsongrass [6, 19]: 10 | Johnsongrass plant response rating [6, 20]: 25 | Johnsongrass plant response rating [6, 21]: 15 | Plant response rating, Ragweed [7, 14]: 90 | Ragweed plant response rating [7, 15]: 90 | Plant response rating, Ragweed [7, 16]: 95 | Plant response rating, Ragweed [7, 17]: 70 | Plant response rating, Ragweed [7, 18]: 85 | Plant response rating, Ragweed [7, 19]: 95 | Ragweed plant response rating [7, 20]: 95 | Ragweed plant response rating [7, 21]: 95 | Plant response rating, Soybean (soybean (Glycine max); [14]): 0 | Soybean plant response rating (soybean (Glycine max); [15]): 10 | Plant response rating, Soybean (soybean (Glycine max); [16]): 25 | Plant response rating, Soybean (soybean (Glycine max); [17]): 0 | Plant response rating, Soybean (soybean (Glycine max); [18]): 0 | Plant response rating, Soybean (soybean (Glycine max); [19]): 5 | Soybean plant response rating (soybean (Glycine max); [20]): 20 | Soybean plant response rating (soybean (Glycine max); [21]): 20 | Plant response rating, Lambsquarters [8, 14]: 95 | Lambsquarters plant response rating [8, 15]: 95 | Plant response rating, Lambsquarters [8, 16]: 98 | Plant response rating, Lambsquarters [8, 17]: 85 | Plant response rating, Lambsquarters [8, 18]: 80 | Plant response rating, Lambsquarters [8, 19]: 85 | Lambsquarters plant response rating [8, 20]: 90 | Lambsquarters plant response rating [8, 21]: 95 | Plant response rating, Blackgrass [9, 14]: 35 | Blackgrass plant response rating [9, 15]: 40 | Plant response rating, Blackgrass [9, 16]: 80 | Plant response rating, Blackgrass [9, 17]: 5 | Plant response rating, Blackgrass [9, 18]: 30 | Plant response rating, Blackgrass [9, 19]: 70 | Blackgrass plant response rating [9, 20]: 80 | Blackgrass plant response rating [9, 21]: 60 | Plant response rating, Corn (corn (Zea mays); [14]): 0 | Corn plant response rating (corn (Zea mays); [15]): 20 | Plant response rating, Corn (corn (Zea mays); [16]): 30 | Plant response rating, Corn (corn (Zea mays); [17]): 0 | Plant response rating, Corn (corn (Zea mays); [18]): 5 | Plant response rating, Corn (corn (Zea mays); [19]): 15 | Corn plant response rating (corn (Zea mays); [20]): 40 | Corn plant response rating (corn (Zea mays); [21]): 30 | Plant response rating, Waterhemp [10, 14]: 75 | Waterhemp plant response rating [10, 15]: 70 | Plant response rating, Waterhemp [10, 16]: 98 | Plant response rating, Waterhemp [10, 17]: 90 | Plant response rating, Waterhemp [10, 18]: 95 | Plant response rating, Waterhemp [10, 19]: 100 | Waterhemp plant response rating [10, 20]: 100 | Waterhemp plant response rating [10, 21]: 85 | Plant response rating, Barnyardgrass [11, 14]: 50 | Barnyardgrass plant response rating [11, 15]: 65 | Plant response rating, Barnyardgrass ([11]; Postemergence, 125 g ai/ha, scale 0 to 100, 0 is no effect, 100 is complete control): 70 | Plant response rating, Barnyardgrass [11, 16]: 85 | Plant response rating, Barnyardgrass [11, 17]: 15 | Plant response rating, Barnyardgrass [11, 18]: 70 | Plant response rating, Barnyardgrass [11, 19]: 100 | Barnyardgrass plant response rating [11, 20]: 90 | Plant response rating, Wheat [12, 14]: 10 | Wheat plant response rating [12, 15]: 35 | Plant response rating, Wheat [12, 16]: 55 | Plant response rating, Wheat [12, 17]: 35 | Plant response rating, Wheat [12, 18]: 50 | Plant response rating, Wheat [12, 19]: 55 | Wheat plant response rating [12, 20]: 85 | Wheat plant response rating [12, 21]: 40 | Plant response rating, Oat, Wild [13, 14]: 85 | Oat, Wild plant response rating [13, 15]: 90 | Plant response rating, Oat, Wild [13, 16]: 98 | Oat, Wild plant response rating [13, 21]: 100 | Plant response rating, Kochia (kochia (Kochia scoparia); [14]): 50 | Kochia plant response rating (kochia (Kochia scoparia); [15]): 60 | Plant response rating, Kochia (kochia (Kochia scoparia); [16]): 95 | Kochia plant response rating (kochia (Kochia scoparia); [21]): 90
